We go through 23 compounds from patent US11236105B2, “Bicyclic compounds and methods of use” (BioTheryX, Inc., priority 2017, dated 2022).

Each structure is given as a SMILES string.

In this experiment the test system is TNF-α. Nature of the experiment: Cell-Based TNFα Inhibition Assay (PBMCs induced with LPS, Meso Scale). The settings on record: PBMCs pretreated 1 hr, induced with LPS 100 ng/mL 18-24 hrs, supernatant TNF-α; for % TNFα Inhibition (0.1 μM) / inhibition at 0.1 µM: 0.1 μM compound; for % TNFα Inhibition (1 μM) / inhibition at 1 µM: 1 μM compound; for inhibition at 0.1 µM / inhibition at 1 µM: PBMC. As to the method:
Cell-Based TNFα Inhibition Assay
PBMCs induced with LPS (lipopolysaccharide): Frozen […] blood mononuclear cells (PBMCs) are purchased from AllCells. Cells are quick thawed, washed once with Roswell Park Memorial Institute medium (RPMI)-1640/10% FBS/1% Penicillin/1% Streptomycin and plated in 96 well plates at 200,000 cells per well. Cells are pretreated with DMSO only or the indicated compounds for 1 hr and then induced with […] for 18-24 hrs. The supernatant is analyzed for TNF-α using Meso Scale assay according to manufacturer's protocol. The negative control wells are treated with DMSO. Compound activity is measured as a percentage of the DMSO control.

As for `CC(=O)Nc1csc2c1C(=O)N([C@H](CS(C)(=O)=O)c1ccc3c(c1)OCO3)C2=O` [Compound 24, N-(5-(1-(benzo[d][1,3]dioxol-5-yl)-2-(methylsulfonyl)ethyl)-4,6-dioxo-5,6-dihydro-4H-thieno[2,3-c]pyrrol-3-yl)acetamide], the “% TNFα Inhibition (0.1 μM)” value is reported as “D (D = a single percent inhibition value <20%)” and the “% TNFα Inhibition (1 μM)” value is “D (D = a single percent inhibition value <20%)”.
Take `CC(=O)Nc1scc2c1C(=O)N([C@H](CS(=O)(=O)N(C)C)c1ccc3c(c1)OCO3)C2=O` [Compound 27, N-(5-(1-(benzo[d][1,3]dioxol-5-yl)-2-(N,N-dimethylsulfamoyl)ethyl)-4,6-dioxo-5,6-dihydro-4H-thieno[3,4-c]pyrrol-1-yl)acetamide]: the inhibition at 0.1 µM is less than 20% and the inhibition at 1 µM was less than 20%.
Take `CCOc1cc([C@@H](CS(C)(=O)=O)N2C(=O)c3scc(NC(=O)C(F)(F)F)c3C2=O)ccc1OC` [Compound 9, (S)—N-(5-(1-(3-ethoxy-4-methoxyphenyl)-2-(methylsulfonyl)ethyl)-4,6-dioxo-5,6-dihydro-4H-thieno[2,3-c]pyrrol-3-yl)-2,2,2-trifluoroacetamide]: the inhibition at 0.1 µM is less than 20% and the inhibition at 1 µM was 40 to 60%.
Regarding `CCOc1cc([C@@H](CS(C)(=O)=O)N2C(=O)c3scc(NC(=O)COC)c3C2=O)ccc1OC` [Compound 10, (S)—N-(5-(1-(3-ethoxy-4-methoxyphenyl)-2-(methylsulfonyl)ethyl)-4,6-dioxo-5,6-dihydro-4H-thieno[2,3-c]pyrrol-3-yl)-2-methoxyacetamide], the inhibition at 0.1 µM is less than 20% and the inhibition at 1 µM was 40 to 60%.
The like results for `COCC(=O)Nc1csc2c1C(=O)N([C@H](CS(C)(=O)=O)c1ccc3c(c1)OCO3)C2=O` [Compound 25, N-(5-(1-(benzo[d][1,3]dioxol-5-yl)-2-(methylsulfonyl)ethyl)-4,6-dioxo-5,6-dihydro-4H-thieno[2,3-c]pyrrol-3-yl)-2-methoxy acetamide] were, in that order, less than 20% and 20 to 40%.
On to `CCOc1cc([C@H](CS(=O)(=O)N(C)C)N2C(=O)c3csc(NC(C)=O)c3C2=O)ccc1OC` [Compound 29, (R)—N-(5-(2-(N,N-dimethylsulfamoyl)-1-(3-ethoxy-4-methoxyphenyl)ethyl)-4,6-dioxo-5,6-dihydro-4H-thieno[3,4-c]pyrrol-1-yl)acetamide], for which the inhibition at 0.1 µM is less than 20% and the inhibition at 1 µM is less than 20%.
On to `CCOc1cc([C@@H](CS(C)(=O)=O)N2Cc3c(NC(=O)C4CC4)csc3C2=O)ccc1OC` [Compound 32, (S)—N-(5-(1-(3-ethoxy-4-methoxyphenyl)-2-(methylsulfonyl)ethyl)-6-oxo-5,6-dihydro-4H-thieno[2,3-c]pyrrol-3-yl)cyclopropanecarboxamide], for which the inhibition at 0.1 µM was less than 20% and the inhibition at 1 µM is 20 to 40%.
Taken in the same sequence, the figures for `COCC(=O)Nc1csc2c1C(=O)N([C@@H](CS(C)(=O)=O)c1ccc3c(c1)OCO3)C2=O` [Compound 26, N-(5-(1-(benzo[d][1,3]dioxol-5-yl)-2-(methylsulfonyl)ethyl)-4,6-dioxo-5,6-dihydro-4H-thieno[2,3-c]pyrrol-3-yl)-2-methoxy acetamide] were less than 20% and less than 20%.
The like results for `CC(=O)Nc1scc2c1C(=O)N([C@H](CS(C)(=O)=O)c1ccc3c(c1)OCO3)C2=O` [Compound 12, N-(5-(1-(benzo[d][1,3]dioxol-5-yl)-2-(methylsulfonyl)ethyl)-4,6-dioxo-5,6-dihydro-4H-thieno[3,4-c]pyrrol-1-yl)acetamide] were, in that order, less than 20% and less than 20%.
With `CCOc1cc([C@@H](CS(C)(=O)=O)N2Cc3c(NC(=O)COC)csc3C2=O)ccc1OC` [Compound 31, (S)—N-(5-(1-(3-ethoxy-4-methoxyphenyl)-2-(methylsulfonyl)ethyl)-6-oxo-5,6-dihydro-4H-thieno[2,3-c]pyrrol-3-yl)-2-methoxyacetamide], the inhibition at 0.1 µM was less than 20% and the inhibition at 1 µM was less than 20%.
Regarding `CCOc1cc([C@@H](CS(C)(=O)=O)N2Cc3c(NC(=O)C(F)(F)F)csc3C2=O)ccc1OC` [Compound 30, (S)—N-(5-(1-(3-ethoxy-4-methoxyphenyl)-2-(methylsulfonyl)ethyl)-6-oxo-5,6-dihydro-4H-thieno[2,3-c]pyrrol-3-yl)-2,2,2-trifluoroacetamide], the inhibition at 0.1 µM is less than 20% and the inhibition at 1 µM was less than 20%.
On to `CCOc1cc([C@@H](CS(C)(=O)=O)N2C(=O)c3csc(N(C(=O)C4CC4)C(=O)C4CC4)c3C2=O)ccc1OC` [Compound 4], for which the inhibition at 0.1 µM was less than 20% and the inhibition at 1 µM is 40 to 60%.
For `CS(=O)(=O)C[C@H](c1ccc2c(c1)OCO2)N1C(=O)c2scc(NC(=O)C(F)(F)F)c2C1=O` [Compound 22, N-(5-(1-(benzo[d][1,3]dioxol-5-yl)-2-(methylsulfonyl)ethyl)-4,6-dioxo-5,6-dihydro-4H-thieno[2,3-c]pyrrol-3-yl)-2,2,2-trifluoroacetamide], the “% TNFα Inhibition (0.1 μM)” value is “C (C = a single percent inhibition value ≤40% and >20%)”; the “% TNFα Inhibition (1 μM)” value is “C (C = a single percent inhibition value ≤40% and >20%)”.
`CCOc1cc([C@@H](CS(C)(=O)=O)N2C(=O)c3csc(NC(=O)C(C)C(F)(F)F)c3C2=O)ccc1OC` (stereo partly drawn) [Compound 5, N-(5-((S)-1-(3-ethoxy-4-methoxyphenyl)-2-(methylsulfonyl)ethyl)-4,6-dioxo-5,6-dihydro-4H-thieno[3,4-c]pyrrol-1-yl)-3,3,3-trifluoro-2-methylpropanamide]: the inhibition at 0.1 µM fell in the range of 20 to 40% and the inhibition at 1 µM was more than 60%.
Consider `CS(=O)(=O)C[C@@H](c1ccc2c(c1)OCO2)N1C(=O)c2csc(NC(=O)C(F)(F)F)c2C1=O` [Compound 17, N-(5-(1-(benzo[d][1,3]dioxol-5-yl)-2-(methylsulfonyl)ethyl)-4,6-dioxo-5,6-dihydro-4H-thieno[3,4-c]pyrrol-1-yl)-2,2,2-trifluoro Acetamide], for which the inhibition at 0.1 µM was less than 20% and the inhibition at 1 µM is less than 20%.
As for `CCOc1cc([C@@H](CS(C)(=O)=O)N2C(=O)c3csc(NC(=O)C(F)(F)F)c3C2=O)ccc1OC` [Compound 7, (S)—N-(5-(1-(3-ethoxy-4-methoxyphenyl)-2-(methylsulfonyl)ethyl)-4,6-dioxo-5,6-dihydro-4H-thieno[3,4-c]pyrrol-1-yl)-2,2,2-trifluoroacetamide], the inhibition at 0.1 µM is less than 20% and the inhibition at 1 µM was less than 20%.
Regarding `CS(=O)(=O)C[C@H](c1ccc2c(c1)OCO2)N1C(=O)c2scc(NC(=O)C(F)(F)F)c2C1=O` [Compound 21, N-(5-(1-(benzo[d][1,3]dioxol-5-yl)-2-(methylsulfonyl)ethyl)-4,6-dioxo-5,6-dihydro-4H-thieno[2,3-c]pyrrol-3-yl)-2,2,2-trifluoroacetamide], the inhibition at 0.1 µM is less than 20% and the inhibition at 1 µM is less than 20%.
For the compound `CCOc1cc([C@@H](CS(C)(=O)=O)N2C(=O)c3csc(NC(=O)C(C)(C)C)c3C2=O)ccc1OC` [Compound 2, (S)—N-(5-(1-(3-ethoxy-4-methoxyphenyl)-2-(methylsulfonyl)ethyl)-4,6-dioxo-5,6-dihydro-4H-thieno[3,4-c]pyrrol-1-yl)pivalamide], the inhibition at 0.1 µM is less than 20% and the inhibition at 1 µM is more than 60%.
Taken in the same sequence, the figures for `CCOc1cc([C@@H](CS(C)(=O)=O)N2C(=O)c3csc(NC(=O)C4CC4)c3C2=O)ccc1OC` [Compound 8, (S)—N-(5-(1-(3-ethoxy-4-methoxyphenyl)-2-(methylsulfonyl)ethyl)-4,6-dioxo-5,6-dihydro-4H-thieno[3,4-c]pyrrol-1-yl)cyclopropanecarboxamide] were less than 20% and more than 60%.
For the compound `CC(=O)Nc1scc2c1C(=O)N([C@H](CS(C)(=O)=O)c1ccc3c(c1)OCCO3)C2=O` [Compound 14, N-(5-(1-(2,3-dihydrobenzo[b][1,4]dioxin-6-yl)-2-(methylsulfonyl)ethyl)-4,6-dioxo-5,6-dihydro-4H-thieno[3,4-c]pyrrol-1-yl) acetamide], the inhibition at 0.1 µM is less than 20% and the inhibition at 1 µM was less than 20%.
For `CCOc1cc([C@@H](CS(C)(=O)=O)N2C(=O)c3csc(NC(C)=O)c3C2=O)ccc1OC` [Compound 1, (S)—N-(5-(1-(3-ethoxy-4-methoxyphenyl)-2-(methylsulfonyl)ethyl)-4,6-dioxo-5,6-dihydro-4H-thieno[3,4-c]pyrrol-1-yl)acetamide], the inhibition at 0.1 µM is 40 to 60% and the inhibition at 1 µM was more than 60%.
As for `CS(=O)(=O)C[C@H](c1ccc2c(c1)OCO2)N1C(=O)c2csc(NC(=O)C3CC3)c2C1=O` [Compound 13, N-(5-(1-(benzo[d][1,3]dioxol-5-yl)-2-(methylsulfonyl)ethyl)-4,6-dioxo-5,6-dihydro-4H-thieno[3,4-c]pyrrol-1-yl)cyclopropane Carboxamide], the inhibition at 0.1 µM was less than 20% and the inhibition at 1 µM is less than 20%.
As to `CCOc1cc([C@@H](CS(=O)(=O)N(C)C)N2C(=O)c3csc(NC(C)=O)c3C2=O)ccc1OC` [Compound 15, (S)—N-(5-(2-(N,N-dimethylsulfamoyl)-1-(3-ethoxy-4-methoxyphenyl)ethyl)-4,6-dioxo-5,6-dihydro-4H-thieno[3,4-c]pyrrol-1-yl)acetamide], the inhibition at 0.1 µM was less than 20% and the inhibition at 1 µM was less than 20%.

Broadly, the inhibition is the drop in the measured response relative to a control, in per cent.
